Like-named read-outs stand apart in the source and are kept apart here.

One data set has as its system Podosphaera leucotricha. Nature of the data set: Podosphaera test (apple) / protective. Type of data set: in vivo. The settings on record: 240 h, read-out: efficacy. Here is the method: (§1) To produce a suitable preparation of active compound, 1 part by weight of active compound is mixed with the stated amounts of solvent and emulsifier, and the concentrate is diluted with water to the desired concentration.
To test for protective activity, young plants are sprayed with the active compound preparation at the stated application rate. After the spray coating has dried on, the plants are inoculated with an aqueous spore suspension of the apple mildew pathogen Podosphaera leucotricha. The plants are then placed in a greenhouse at about 23° C. and a relative atmospheric humidity of about 70%.
(§2) Evaluation is carried out 10 days after the inoculation. 0% means an efficacy which corresponds to that of the control, whereas an efficacy of 100% means that no infection is observed.

A further data set concerns Sphaerotheca fuliginea. Description: Sphaerotheca test (cucumber) / protective. Type of data set: in vivo. The settings on record: Podosphaera fuliginea, 168 h, read-out: efficacy. Here is the method: as §1
To test for protective activity, young plants are sprayed with the active compound preparation at the stated application rate. After the spray coating has dried, the plants are inoculated with an aqueous spore suspension of Sphaerotheca fuliginea. The plants are then placed in a greenhouse at about 23° C. and a relative atmospheric humidity of about 70%.
Evaluation is carried out 7 days after the inoculation. 0% means an efficacy which corresponds to that of the control, whereas an efficacy of 100% means that no infection is observed.

The next data set has as its system Botrytis cinerea. Nature of the data set: Botrytis test (bean) / protective. In kind it is in vivo. The settings on record: 48 h, read-out: efficacy. Here is the method: as §1
To test for protective activity, young plants are sprayed with the active compound preparation at the stated application rate. After the spray coating has dried on, 2 small pieces of agar overgrown with Botrytis cinerea are placed on each leaf. The inoculated plants are then placed in a darkened chamber at about 20° C. and 100% relative atmospheric humidity.
Two days after the inoculation the size of the infected spots on the leaves is evaluated. 0% means an efficacy which corresponds to that of the control, whereas an efficacy of 100% means that no infection is observed.

The next data set has as its system Uromyces appendiculatus. Nature of the data set: Uromyces test (bean) / protective. In kind it is in vivo. The settings on record: 240 h, read-out: efficacy. Here is the method: as §1
To test for protective activity, young plants are sprayed with the active compound preparation at the stated application rate. After the spray coating has dried on, the plants are inoculated with an aqueous spore suspension of the bean rust pathogen Uromyces appendiculatus and then remain in an incubation cabin at about 20° C. and 100% relative atmospheric humidity for 1 day.
The plants are then placed in a greenhouse at about 21° C. and a relative atmospheric humidity of about 90%.
as §2

A further data set has as its system Puccinia recondita. Description: Puccinia test (wheat) / protective. In kind it is in vivo. The settings on record: 240 h, read-out: efficacy. Here is the method:
as §1
To test for protective activity, young plants are sprayed with the active compound preparation at the stated application rate. After the spray coating has dried on, the plants are sprayed with a conidia suspension of Puccinia recondita. The plants remain in an incubation cabin at 20° C. and 100% relative atmospheric humidity for 48 hours.
The plants are then placed in a greenhouse at a temperature of about 20° C. and a relative atmospheric humidity of 80% to promote the development of rust pustules.
as §2

[1] abbreviates: apple plants, protective spray, active compound concentration 100 ppm, evaluation 10 days after inoculation.
[2] abbreviates: cucumber plants, protective spray, active compound concentration 100 ppm, evaluation 7 days after inoculation.
Setting [3] is: bean plants, protective spray, active compound concentration 250 ppm, evaluation two days after inoculation.
Setting [4] is: bean plants, protective spray, active compound concentration 10 ppm, evaluation 10 days after inoculation.
[5] abbreviates: wheat plants, protective spray, active compound concentration 1000 ppm, evaluation 10 days after inoculation.

“4-(4-Bromophenoxy)-2,5-dimethylnitrobenzene”: the “log P (pH 2.3)” value is 4.86.
Turning to “4-(4-Cyclohexylphenoxy)-2,5-dimethylnitrobenzene”, the “log P (pH 2.3)” value was found to be 6.69.
As for `CCc1ccccc1-c1ccc(Oc2cc(C)c(N=CN(C)CC)cc2C)cc1` [Compound 13], the pest or weed control at 100 ppm in the data set on Podosphaera leucotricha and in the data set with Sphaerotheca fuliginea was at least 70% throughout. For the same compound, in the data set with Botrytis cinerea, the pest or weed control at 250 ppm was at least 70%. In addition, the pest or weed control at 10 ppm in the data set on Uromyces appendiculatus is at least 70%. Besides, the pest or weed control at 1000 ppm with Puccinia recondita was at least 70%. This compound returned a log partition coefficient (logP) in the data set “logP (acidic, pH 2.3)” (pH 2.3) of 2.89.
With `CCN(C)C=Nc1cc(C)c(Oc2ccc(-c3ccccc3C)cc2)cc1C` [Compound 16], the pest or weed control at 100 ppm with Podosphaera leucotricha and in the data set on Sphaerotheca fuliginea was at least 70% in each case. The pest or weed control at 250 ppm with Botrytis cinerea is at least 70%. Further, the pest or weed control at 10 ppm with Uromyces appendiculatus is at least 70%. For the same compound, the pest or weed control at 1000 ppm in the data set with Puccinia recondita is at least 70%. This compound also had a logP in “logP (acidic, pH 2.3)” (pH 2.3) of 2.75.
As for `Cc1cc(Oc2ccc(C3CCCCC3)cc2)c(C)cc1/N=C/N1CCCCC1` [Compound 41, 4-(4-cyclohexylphenoxy)-2,5-dimethyl-N-[(1E)-piperidin-1-ylmethylene]aniline], the pest or weed control at 100 ppm with Podosphaera leucotricha (setting [1]) and in the data set with Sphaerotheca fuliginea (setting [2]) was at least 70% throughout. Further, in the data set with Botrytis cinerea (setting [3]), the pest or weed control at 250 ppm was at least 70%. Further, the pest or weed control at 10 ppm in the data set on Uromyces appendiculatus (setting [4]) is at least 70%. The pest or weed control at 1000 ppm with Puccinia recondita (setting [5]) was at least 70%. The compound further gave a lipophilicity (logP) in the data set “logP (acidic, pH 2.3)” (pH 2.3, logP acidic, acidic) of 3.46.
As for `CCN(C)C=Nc1cc(C)c(Oc2ccc(C3CCCCC3)cc2)cc1C` [Compound 38, N′-{4-[4-cyclohexylphenoxy]-2,5-dimethylphenyl}-N-ethyl-N-methylimidoformamide], the pest or weed control at 100 ppm with Podosphaera leucotricha (setting [1]) and in the data set with Sphaerotheca fuliginea (setting [2]) was at least 70% throughout. For the same compound, the pest or weed control at 250 ppm with Botrytis cinerea (setting [3]) was at least 70%. The pest or weed control at 10 ppm in the data set with Uromyces appendiculatus (setting [4]) was at least 70%. Moreover, the pest or weed control at 1000 ppm with Puccinia recondita (setting [5]) was at least 70%. Further, the logP in “logP (acidic, pH 2.3)” (pH 2.3, log P (pH 2.3), pH 2.3) was determined as 2.99; in the data set “logP (acidic, pH 2.3)” (pH 2.3, logP acidic, acidic), 2.99.
`CCN(C)C=Nc1cc(C)c(Oc2ccc(-c3ccccc3C(C)=O)cc2)cc1C` [Compound 18]: the pest or weed control at 100 ppm in the data set on Podosphaera leucotricha and in the data set with Sphaerotheca fuliginea was at least 70% in each case. Also, in the data set with Botrytis cinerea, the pest or weed control at 250 ppm was at least 70%. Also, the pest or weed control at 10 ppm with Uromyces appendiculatus is at least 70%. Moreover, the pest or weed control at 1000 ppm with Puccinia recondita was at least 70%. The logP in the data set “logP (acidic, pH 2.3)” (pH 2.3) was found to be 2.29.

Values taken from patent US8299302B2 (priority 2007, dated 2012).
